Source: US5506262A, “Cholesterol lowering compounds” (Merck & Co., Inc., priority 1993, dated 1996)
In brackets after ≈: the same amount, converted by molar mass.

Assays:
[1] = system: C. parapsilosis MY1010; experiment: Antifungal MIC, microtiter dilution assay; type: cell-based; conditions: Lodderomyces parapsilosis, 24 to 48 hours, 35° C., read-out: Minimum Inhibitory Concentration
Experimental: (§1) The compounds are particularly active towards filamentous fungi and yeasts including Candida albicans and Cryptococcus neoformans. The sensitivity of filamentous fungi and yeast was determined using inhibitor dilution assays in microtiter format. The compounds were dissolved in DMSO at 2 mg/ml and serially diluted in 0.1M phosphate buffer, pH 7.0 in the microtiter dish from 100 to 0.006 μg/ml. A standardized spore suspension for testing the filamentous fungi was prepared by inoculating Antibiotic Medium #3 containing 1.5% agar with spores such that 1.5×10^3 colony forming units were added per well. The microtiter wells were filled with 50 μl of buffer containing compound and 50 μl of inoculated medium.
(§2) The sensitivity of yeasts was determined by inoculating yeast nitrogen base containing 1% dextrose (YNB/G) with aliquots of an overnight yeast culture grown in Yeast Morphology (YM) media at 35° C. and diluting in YNB/G to yield a final concentration of 1.5-7.5×10^3 colony forming units/well. To test the sensitivity of yeast, compound was solubilized in 10 percent aqueous DMSO at 2.56 mg/ml. The compound was diluted serially in YNB/G from 128 to 0.06 μg/ml and further diluted 1:10 in YNB/G. The wells were filled with 150 μl of media containing drug. […] Representative of the antifungal activity are the minimum inhibitory concentration data shown below for representative compounds from the various embodiments and classes described hereinabove.

[2] = system: C. tropicalis MY1012; experiment: Antifungal MIC, microtiter dilution assay; type: cell-based; conditions: Candida tropicalis, 24 to 48 hours, 35° C., read-out: Minimum Inhibitory Concentration
Experimental: as §1, §2

[3] = system: Candida albicans MY1055; experiment: Antifungal MIC, microtiter dilution assay; type: cell-based; conditions: 24 to 48 hours, 35° C., read-out: Minimum Inhibitory Concentration
Experimental: as §1, §2

[4] = system: Crypt. neoformans MY1051; experiment: Antifungal MIC, microtiter dilution assay; type: cell-based; conditions: Cryptococcus neoformans, 24 to 48 hours, 35° C., read-out: Minimum Inhibitory Concentration
Experimental: as §1, §2

[5] = system: Aspergillus flavus MF383; experiment: Antifungal MIC, microtiter dilution assay; type: cell-based; conditions: 42 hours, 28° C., read-out: Minimum Inhibitory Concentration
Experimental: as §1, §2

[6] = target: T1, Farnesyl-protein transferase (Ftase) (Bos taurus, UniProt P29702+P49355); experiment: RASIT ASSAY I: inhibition of Ras farnesylation in vitro; type: biochemical, bovine; conditions: Ras-CVLS 3.5 μM, 0.25 μM [3H]FPP
T1 construct: Farnesyl-protein transferase (Ftase) from bovine brain was chromatographed on DEAE-Sephacel; from tissue; host or cells: bovine brain, partially purified (DEAE-Sephacel, N-octyl agarose, mono Q)
Experimental: (§3) The intrinsic farnesyl-protein transferase (FTase) activity of representative compounds of this invention was measured by the assays described below:
(§4) Farnesyl-protein transferase (Ftase) from bovine brain was chromatographed on DEAE-Sephacel (Pharmacia, 0-0.8M NaCl gradient elution), N-octyl agarose (Sigma, 0-0.6M Nacl gradient elution), and a mono Q HPLC column (Pharmacia, 0-0.3M NaCl gradient). Ras-CVLS at 3.5 μM, 0.25 μM [^3 H]FPP, and the indicated compounds were incubated with this partially purified enzyme preparation. The Ftase data presented below is a measurement of the ability of the test compound to inhibit Ras farnesylation in vitro.
(§5) Table 8 lists IC50 data which is representative of the intrinsic Ras inhibitory activity of the compounds of this invention. Data of representative compounds from each embodiment and class of the invention is provided. When an inhibitory value is not provided for a given assay, the compound was not tested in that protocol.

[7] = target: T1, Farnesyl-protein transferase (Ftase); experiment: RASIT ASSAY II: inhibition of Ras farnesylation in vitro; type: biochemical, bovine; conditions: Ras-CVLS 1.0 μM, 0.5 μM [3H]FPP
Experimental: as §3
as §4, with “1.0” for “3.5”, “0.5” for “0.25”
as §5

| SMILES | MIC [1] [µg/mL] | MIC [2] [µg/mL] | MIC [3] [µg/mL] | MIC [4] [µg/mL] | MIC [5] [µg/mL] | IC50 [6] [nM] | IC50 [7] [nM] |
| --- | --- | --- | --- | --- | --- | --- | --- |
| C=C(CC[C@]12O[C@H](C(=O)O)[C@@](O)(C(=O)O)[C@](C(=O)O)(O1)[C@H](OC(=O)Nc1ccc(-c3ccccc3)cc1)[C@H]2O)[C@@H](OC(C)=O)[C@H](C)Cc1ccccc1 [Compound 5t] | > 128 | 0.5 (≈ 0.681 µM) | 8 (≈ 10.9 µM) | > 128 | 0.5 (≈ 0.681 µM) |  |  |
| C=C(CC[C@]12O[C@H](C(=O)O)[C@@](O)(C(=O)O)[C@](C(=O)O)(O1)[C@H](OC(=O)/C=C/[C@@H](C)C[C@@H](C)CC)[C@H]2OC)[C@@H](OC(C)=O)[C@H](C)Cc1ccccc1 [5n'] | 16 (≈ 22.7 µM) | 1 (≈ 1.42 µM) | 4 (≈ 5.68 µM) | 1 (≈ 1.42 µM) | 4 (≈ 5.68 µM) | 4000 |  |
| C=C(CC[C@]12O[C@H](C(=O)Nc3ccncn3)[C@@](O)(C(=O)O)[C@](C(=O)O)(O1)[C@H](OC(=O)/C=C/[C@@H](C)C[C@@H](C)CC)[C@H]2O)[C@@H](OC(C)=O)[C@H](C)Cc1ccccc1 [Compound 12n, IA-3-(4-amidopyrimidine)] | 32 (≈ 41.7 µM) | 8 (≈ 10.4 µM) | 16 (≈ 20.8 µM) | 0.25 (≈ 0.326 µM) | 2 (≈ 2.6 µM) |  |  |
| C=C(CC[C@]12O[C@H](C(N)=O)[C@@](O)(C(=O)O)[C@](C(=O)O)(O1)[C@H](OC(=O)/C=C/[C@@H](C)C[C@@H](C)CC)[C@H]2O)[C@@H](OC(C)=O)[C@H](C)Cc1ccccc1 [Compound 12a, IA-3-carboxamide] | 8 (≈ 11.6 µM) | 2 (≈ 2.9 µM) | 8 (≈ 11.6 µM) | 1 (≈ 1.45 µM) | 2 (≈ 2.9 µM) |  |  |
| C=C(CC[C@]12O[C@H](C(=O)O)[C@@](O)(C(=O)O)[C@](C(=O)O)(O1)[C@H](OC(=O)OCCCCCCCCCCCOc1ccccc1)[C@H]2O)[C@@H](OC(C)=O)[C@H](C)Cc1ccccc1 [Compound 5y] |  |  |  |  |  | 500 | 27 |
| CC[C@H](C)C[C@H](C)CCC(=O)O[C@@H]1[C@@H](O)[C@@]2(CCC(C)[C@@H](OC(C)=O)[C@H](C)Cc3ccccc3)O[C@H](C(=O)O)[C@@](O)(C(=O)O)[C@]1(C(=O)O)O2 (stereo partly drawn) [Compound 24b, (1S,3S,4S,5R,6R,7R)-1-[(4S)-acetoxy-3,5(R)-dimethyl-6-phenyl]hexyl-4,6,7-trihydroxy-6-O-(4(S),6(S)-dimethyl-2-octanoyl)-2,8-dioxabicyclo-[3,2,1]octane-3,4,5-tricarboxylic acid] |  |  |  |  |  | 1300 |  |
| C=C(CC[C@]12O[C@H](C(=O)O)[C@@](O)(C(=O)O)[C@](C(=O)O)(O1)[C@H](OC(=O)NCCCCCCCCCCCOc1ccccc1)[C@H]2O)[C@@H](OC(C)=O)[C@H](C)Cc1ccccc1 [Compound 5u] |  |  |  |  |  | 500 | 27 |
| CC[C@H](C)C[C@H](C)/C=C/C(=O)O[C@@H]1[C@@H](O)[C@@]2(CCCOC(=O)CCCc3ccccc3)O[C@H](C(=O)O)[C@@](O)(C(=O)O)[C@]1(C(=O)O)O2 [Compound 39e, 39-4-phenylbutyrate ester] |  |  |  |  |  | 120 | 19 |

The remaining lines, values ahead:

| MIC [1] [µg/mL] | MIC [2] [µg/mL] | MIC [3] [µg/mL] | MIC [4] [µg/mL] | MIC [5] [µg/mL] | IC50 [6] [nM] | IC50 [7] [nM] | SMILES |
| --- | --- | --- | --- | --- | --- | --- | --- |
| > 128 | > 128 | 1 (≈ 1.49 µM) | 32 (≈ 47.6 µM) |  |  |  | C=C(CC[C@]12O[C@H](C(=O)O)[C@@](O)(C(=O)O)[C@](C(=O)O)(O1)[C@H](OC(=O)NCc1ccccc1)[C@H]2O)[C@@H](OC(C)=O)[C@H](C)Cc1ccccc1 [Compound 5s] |
| 1 (≈ 1.2 µM) | 128 (≈ 154 µM) | 8 (≈ 9.63 µM) | 0.25 (≈ 0.301 µM) | 1 (≈ 1.2 µM) |  |  | C=C(CC[C@]12O[C@H](C(=O)O)[C@@](O)(C(=O)O)[C@](C(=O)O)(O1)[C@H](OCCCCCCCCCCOc1ccc(OC)c(OC)c1)[C@H]2O)[C@@H](OC(C)=O)[C@H](C)Cc1ccccc1 [5q"'] |
| > 128 | 8 (≈ 12.6 µM) | 8 (≈ 12.6 µM) | 2 (≈ 3.14 µM) | 4 (≈ 6.28 µM) |  |  | CC[C@H](C)C[C@H](C)CCC(=O)O[C@@H]1[C@@H](O)[C@@]2(CCC(C)C[C@H](C)Cc3ccccc3)O[C@H](C(=O)O)[C@@](O)(C(=O)O)[C@]1(C(=O)O)O2 (stereo partly drawn) [Compound 25b, (1S,3S,4S, 5R,6R,7R)-1-[3,5(R)-dimethyl-6-phenyl]hexyl-4,6,7trihydroxy-6-O-(4(S),6(S)-dimethyl-2-octanoyl)-2,8-dioxabicyclo[3.2.1]octane-3,4,5-tricarboxylic acid] |
|  |  |  |  |  | 1700 | 52 | C=C(CC[C@]12O[C@H](C(=O)O)[C@@](O)(C(=O)O)[C@](C(=O)O)(O1)[C@H](OC(=O)/C=C/[C@@H](C)C[C@@H](C)CC)[C@H]2O)[C@@H](OC(=O)c1ccccc1)[C@H](C)Cc1ccccc1 [Compound 7d] |
| 2 (≈ 2.78 µM) | 2 (≈ 2.78 µM) | 2 (≈ 2.78 µM) | 0.5 (≈ 0.696 µM) | 2 (≈ 2.78 µM) |  |  | C=C(CC[C@]12O[C@H](C(=O)O)[C@@](O)(C(=O)O)[C@](C(=O)O)(O1)[C@H](OC(=O)/C=C/[C@@H](C)C[C@@H](C)CC)[C@H]2O)[C@@H](OC(=O)CCC)[C@H](C)Cc1ccccc1 [Compound 7b, IA-Cl(4')-Butanoyl tri-acid] |
